Reference: PubChem BioAssay (NCI)
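Where inhibition never reached the appropriate level, the endpoint shown equals the highest concentration tested. Otherwise, values were interpolated linearly from a five-concentration, 48-hour dose response in 96-well plates. GI50 marks 50% less growth. TGI marks complete inhibition of growth.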

Key:
Test in all cases: NCI tumour cell line growth inhibition, 48 h
HOP-92 NSCLC = test system: HOP-92 NSCLC
NCI/ADR-RES ovarian = test system: NCI/ADR-RES ovarian
OVCAR-5 ovarian = test system: OVCAR-5 ovarian
RPMI-8226 leukemia = test system: RPMI-8226 leukemia
SF-268 CNS = test system: SF-268 CNS
SK-MEL-5 melanoma = test system: SK-MEL-5 melanoma
SK-OV-3 ovarian = test system: SK-OV-3 ovarian
SW-620 colon = test system: SW-620 colon
UACC-62 melanoma = test system: UACC-62 melanoma
ACHN renal = test system: ACHN renal

SMILES | TGI (HOP-92 NSCLC) [µM] | TGI (NCI/ADR-RES ovarian) [µM] | TGI (OVCAR-5 ovarian) [µM] | TGI (RPMI-8226 leukemia) [µM] | TGI (SF-268 CNS) [µM] | TGI (SK-MEL-5 melanoma) [µM] | TGI (SK-OV-3 ovarian) [µM] | TGI (SW-620 colon) [µM] | TGI (UACC-62 melanoma) [µM] | TGI (ACHN renal) [µM] | GI50 (ACHN renal) [µM] | GI50 (HOP-92 NSCLC) [µM] | GI50 (NCI/ADR-RES ovarian) [µM] | GI50 (OVCAR-5 ovarian) [µM] | GI50 (RPMI-8226 leukemia) [µM] | GI50 (SF-268 CNS) [µM] | GI50 (SK-MEL-5 melanoma) [µM] | GI50 (SK-OV-3 ovarian) [µM] | GI50 (SW-620 colon) [µM] | GI50 (UACC-62 melanoma) [µM]
COc1cccc2c1C(=O)c1c(O)c3c(c(O)c1C2=O)CC(O)(C(C)=O)CC3O (centres undefined) | 28.9 | 22.4 | 24.1 | 16.6 | 31.9 | 6.98 | 36.9 | 32.7 | 14.4 | – | – | – | – | – | – | – | – | – | – | –
O=c1[nH]c(-c2ccc(Cl)cc2)cc2ccsc12 | 77.4 | > 100 | > 100 | 19.1 | > 100 | > 100 | 77.9 | > 100 | > 100 | > 100 | – | – | – | – | – | – | – | – | – | –
CCOC(=O)C1=C(C)N(c2ccc(Cl)cc2)C2(O)C=CC(Nc3ccc(Cl)cc3)=C3C(=O)N(c4ccccc4)C(=O)C312 (centres undefined) | 9.19 | 12.7 | 21.3 | 4.13 | 20.1 | 11 | 24.9 | 14.6 | 7.15 | 20 | – | – | – | – | – | – | – | – | – | –
CN1CCN(Cn2nc(-c3cc(F)c(Cl)cc3Cl)oc2=S)CC1 | > 100 | > 100 | > 100 | 50.9 | > 100 | 33.7 | > 100 | 39.4 | 55.2 | > 100 | 34.6 | > 100 | 83.6 | > 100 | 22.7 | 34.2 | 17.4 | 56.9 | 20 | 21.2
